According to patent US5378838A, “Benzodiazepine cholecystokinin antagonists” (Merck & Co., Inc., priority 1993, dated 1995):
Read-outs that look alike come from different tables or passages of the source.

Assays:
CCK receptor (pancreas) = biological target: T1, CCK receptor (pancreas) (Rattus norvegicus, UniProt P30551); assay: CCK Receptor Binding (Pancreas), inhibition of 125I-CCK-8 binding; design: species or system rat (male Sprague-Dawley)
T1 construct: The whole pancreas was dissected free of fat tissue and was homogenized; from tissue; host or cells: whole pancreas membranes of male Sprague-Dawley rats
T1 sequence (P30551 1-444): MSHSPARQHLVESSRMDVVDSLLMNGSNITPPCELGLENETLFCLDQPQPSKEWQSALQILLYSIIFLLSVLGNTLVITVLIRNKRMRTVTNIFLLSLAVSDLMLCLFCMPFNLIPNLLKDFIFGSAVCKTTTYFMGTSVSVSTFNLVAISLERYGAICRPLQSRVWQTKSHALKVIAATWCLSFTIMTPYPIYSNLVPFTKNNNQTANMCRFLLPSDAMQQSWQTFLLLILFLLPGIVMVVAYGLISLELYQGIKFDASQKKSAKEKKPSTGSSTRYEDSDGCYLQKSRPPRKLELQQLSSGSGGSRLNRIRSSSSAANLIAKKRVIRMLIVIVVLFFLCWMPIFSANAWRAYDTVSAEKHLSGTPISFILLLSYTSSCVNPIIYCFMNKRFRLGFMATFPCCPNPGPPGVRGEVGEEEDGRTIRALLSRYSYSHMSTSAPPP
Experimental: 1. CCK Receptor Binding (Pancreas)
Male Sprague-Dawley rats (150-200 g) were sacrificed by decapitation. The whole pancreas was dissected free of fat tissue and was homogenized in 25 volumes of ice-cold 10 mM Hepes buffer with 0.1% soya bean trypsin inhibitor (pH 7.4 at 25° C.) with a Kinematica Polytron. The homogenates were centrifuged at 47,800 g for 10 min. Pellets were resuspended in 10 volumes of binding assay buffer (20 mM Hepes, 1 mM EGTA, 5 mM MgCl2, 150 mM NaCl, bacitracin 0.25 mg/ml, soya bean trypsin inhibitor 0.1 mg/ml, and bovine serum albumin 2 mg/ml, pH 6.5 at 25° C.) using a teflon homogenizer, 15 strokes at 500 rpm. The homogenate was further diluted in binding assay buffer to give a final concentration of 0.5 mg original wet weight/l ml buffer. […] All assays were run in duplicate. The reaction mixtures were incubated at 25° C. for 2 hours and the reaction terminated by rapid filtration (Brandell 24 well cell harvester) over Whatman GF/C filters, washing 3×4 mls with ice-cold 100 mM NaCl. The radioactivity on the filters was counted with a LKB gamma counter.
Drug displacement studies were performed with at least 10 concentrations of compounds of formula 1 and the IC50 values were determined by regression analysis.

CCK receptor (brain) = biological target: T2, CCK receptor (brain) (Cavia porcellus, UniProt H0VZC5); assay: CCK Receptor Binding (Brain), inhibition of 125I-CCK-8 binding; design: species or system guinea pig (male Hartley); conditions: guinea pig cortex, 50 pM 125I-CCK-8, pH 6.5, 25° C., 2 hours
T2 construct: the cortex was removed and homogenized in 25 mL ice-cold 0.32M sucrose; from tissue; host or cells: cortex P2 membranes of male Hartley guinea pigs
T2 sequence (H0VZC5 1-426): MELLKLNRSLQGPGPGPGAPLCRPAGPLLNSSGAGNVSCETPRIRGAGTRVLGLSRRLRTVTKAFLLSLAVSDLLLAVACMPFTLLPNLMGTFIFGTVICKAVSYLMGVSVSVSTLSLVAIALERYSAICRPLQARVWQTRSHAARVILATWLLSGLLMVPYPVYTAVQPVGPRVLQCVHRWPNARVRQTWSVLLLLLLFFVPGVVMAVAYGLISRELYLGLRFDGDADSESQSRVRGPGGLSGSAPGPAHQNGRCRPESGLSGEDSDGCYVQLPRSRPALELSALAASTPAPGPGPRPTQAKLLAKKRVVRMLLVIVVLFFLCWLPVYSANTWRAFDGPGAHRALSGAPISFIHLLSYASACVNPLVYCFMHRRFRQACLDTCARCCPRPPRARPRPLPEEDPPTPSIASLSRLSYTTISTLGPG
Experimental: CCK-8 sulphated was radiolabelled and the binding was performed according to the description for the pancreas method with minor modifications.
Male Hartley guinea pigs (300-500g) were sacrificed by decapitation and the cortex was removed and homogenized in 25 mL ice-cold 0.32M sucrose. The homogenates were centrifuged at 1000 g for 10 minutes and the resulting supernatant was recentrifuged at 20,000 g for 20 minutes. […] All assays were run in duplicate. The reaction mixtures were incubated at 25° C. for 2 hours and then the reaction was terminated on Whatman GF/C filters by rapid filtration (Brandell 24 well cell Harvester) with 3×5 ml washes of cold 100 mM NaCl. The radioactivity on the filters was then counted with a LKB gamma counter.
Drug displacement studies were performed with at least 10 concentrations of compounds of formula 1 and the IC50 values were determined by regression analysis. IC50 refers to the concentration of the compound required to inhibit 50% of specific binding of ^125 I-CCK-8.

[1] = read-out: IC50 125I-CCK Pancreas, rat pancreas, 50 pM 125I-CCK-8, pH 6.5, 25° C., 2 hours
[2] = rat pancreas, 50 pM 125I-CCK-8, pH 6.5, 25° C., 2 hours, read-out: IC50 125I-CCK Pancreas

## COC(=O)[C@H](Cc1cccc(NC(=O)N[C@@H]2N=C(c3ccccc3)c3ccccc3N(C)C2=O)c1)NC(=O)OC(C)(C)C [Example 1, N-{(3R)-1,3-Dihydro-1-methyl-2-oxo-5-phenyl-1H-1,4-benzodiazepin-3-yl}-N'-{[3-((2S)-tertbutyloxycarbonylamino-2-methoxycarbonyl)ethylphenyl]urea}]
CCK receptor (pancreas)
  IC50: > 3 µM
CCK receptor (brain)
  IC50: 0.0296 µM

## COC(=O)[C@@H](N)Cc1cccc(NC(=O)N[C@@H]2N=C(c3ccccc3)c3ccccc3N(C)C2=O)c1 [Example 2, N-{(3R)-1,3-Dihydro-1-methyl-2-oxo-5-phenyl-1H-1,4-benzodiazepin-3-yl}-N'-{[3-((2S)-amino-2-methoxycarbonyl)ethylphenyl]-urea}]
CCK receptor (pancreas)
  IC50: > 3 µM
CCK receptor (brain)
  IC50: 0.114 µM

## CN1C(=O)[C@H](NC(=O)Nc2cccc(C[C@H](N)C(=O)O)c2)N=C(c2ccccc2)c2ccccc21 [Example 3, N-{(3R)-1,3-Dihydro-1-methyl-2-oxo-5-phenyl-1H-1,4-benzodiazepin-3-yl}-N'-{[3-((2S)-amino-2-carboxy)ethylphenyl]-urea}]
CCK receptor (pancreas); [1]
  IC50: > 3 µM
CCK receptor (brain)
  IC50: 0.0613 µM

## COC(=O)[C@H](Cc1cccc(NC(=O)N[C@@H]2N=C(C3CCCCC3)c3ccccc3N(C)C2=O)c1)NC(=O)OC(C)(C)C [Example 4, N-{(3R)-1,3-Dihydro-1-methyl-2-oxo-5-cyclohexyl-1H-1,4-benzodiazepin-3-yl}-N'-{[3-((2S)-tert-butyloxycarbonylamino-2-methoxycarbonyl)ethylphenyl]-urea}]
CCK receptor (pancreas); [2]
  IC50: 0.961 µM
CCK receptor (brain)
  IC50: 0.0039 µM

## COC(=O)[C@@H](N)Cc1cccc(NC(=O)N[C@@H]2N=C(C3CCCCC3)c3ccccc3N(C)C2=O)c1 [Example 5, N-{(3R)-1,3-Dihydro-1-methyl-2-oxo-5-cyclohexyl-1H-1,4-benzodiazepin-3-yl}-N'-{[3-((2S)-amino-2-methoxycarbonyl)ethylphenyl]-urea}]
CCK receptor (pancreas); [2]
  IC50: 0.924 µM
CCK receptor (brain)
  IC50: 0.0092 µM

## CN1C(=O)[C@H](NC(=O)Nc2cccc(C[C@H](N)C(=O)O)c2)N=C(C2CCCCC2)c2ccccc21 [Example 6, N-{(3R)-1,3-Dihydro-1-methyl-2-oxo-5-cyclohexyl-1H-1,4-benzodiazepin-3-yl}-N'-{[3-((2S )amino-2-carboxy)ethylphenyl]-urea}]
CCK receptor (pancreas); [2]
  IC50: 1.79 µM
CCK receptor (brain)
  IC50: 0.0011 µM

## COC(=O)[C@@H](NC(=O)OC(C)(C)C)c1cccc(NC(=O)N[C@@H]2N=C(c3ccccc3)c3ccccc3N(C)C2=O)c1 [Example 7, N-{(3R)-1,3-Dihydro-1-methyl-2-oxo-5-phenyl-1H-1,4-benzodiazepin-3-yl}-N'-{[3-((1S)-tert-butyloxycarbonylamino-1-methoxycarbonyl)methylphenyl]-urea}]
CCK receptor (pancreas)
  IC50: > 3 µM
CCK receptor (brain)
  IC50: 1.98 µM

## COC(=O)[C@@H](N)c1cccc(NC(=O)N[C@@H]2N=C(c3ccccc3)c3ccccc3N(C)C2=O)c1 [Example 8, N-{(3R)-1,3-Dihydro-1-methyl-2-oxo-5-phenyl-1H-1,4-benzodiazepin-3-yl}-N'-{[3-((1S )-amino-1-methoxycarbonyl)methylphenyl]-urea}]
CCK receptor (pancreas)
  IC50: > 3 µM
CCK receptor (brain)
  IC50: 0.958 µM

## CN1C(=O)[C@H](NC(=O)Nc2cccc([C@H](N)C(=O)O)c2)N=C(c2ccccc2)c2ccccc21 [Example 9, N-{(3R)-1,3-Dihydro-1-methyl-2-oxo-5-phenyl-1H-1,4-benzodiazepin-3-yl}-N'-{[3-((1S)-amino-1-carboxy)methylphenyl]-urea}]
CCK receptor (pancreas)
  IC50: > 3 µM
CCK receptor (brain)
  IC50: 1.33 µM

## CN1C(=O)[C@H](NC(=O)Nc2cccc([C@@H](N)C(=O)O)c2)N=C(c2ccccc2)c2ccccc21 [Example 10, N-{(3R)-1,3-Dihydro-1-methyl-2-oxo-5-phenyl-1H-1,4-benzodiazepin-3-yl}-N'-{[3-((1R)-amino-1-carboxy)methylphenyl]-urea}]
CCK receptor (pancreas)
  IC50: > 3 µM
CCK receptor (brain)
  IC50: 3.59 µM

## COC(=O)CC(NC(=O)OC(C)(C)C)c1cccc(NC(=O)N[C@@H]2N=C(c3ccccc3)c3ccccc3N(C)C2=O)c1 (stereo partly drawn) [Example 11, N-{(3R)-1,3-Dihydro-1-methyl-2-oxo-5-phenyl-1 H-1,4-benzodiazepin-3-yl}-N'-{[3-((1R,S)-tert-butyloxycarbonylamino-2-methoxycarbonyl)ethylphenyl]-urea}]
CCK receptor (pancreas)
  IC50: > 3 µM
CCK receptor (brain)
  IC50: 0.386 µM

## COC(=O)CC(N)c1cccc(NC(=O)N[C@@H]2N=C(c3ccccc3)c3ccccc3N(C)C2=O)c1 (stereo partly drawn) [Example 12, N-{(3R)-1,3-Dihydro-1-methyl-2-oxo-5-phenyl-1H-1,4-benzodiazepin-3-yl}-N,- {[3-((1R,S)-amino-2-methoxycarbonyl)ethylphenyl]-urea}]
CCK receptor (brain)
  IC50: > 3 µM

## CN1C(=O)[C@H](NC(=O)Nc2cccc(C(N)CC(=O)O)c2)N=C(c2ccccc2)c2ccccc21 (stereo partly drawn) [Example 13, N-{(3R)-1,3-Dihydro-1-methyl-2-oxo-5-phenyl-1H-1,4-benzodiazepin-3-yl}-N'-{[3-((1R,S)-amino-2-carboxy)ethylphenyl]-urea}]
CCK receptor (pancreas)
  IC50: > 3 µM
CCK receptor (brain)
  IC50: > 3 µM

## COC(=O)C1(NC(=O)OC(C)(C)C)CCc2cccc(NC(=O)N[C@@H]3N=C(c4ccccc4)c4ccccc4N(C)C3=O)c2C1 (stereo partly drawn) [Example 14, N-{(3R)-1,3-Dihydro-1-methyl-2-oxo-5-phenyl-1H-1,4-benzodiazepin-3-yl}-N'-{[8-(methyl-2(R,S)-tert-butyloxycarbonylamino-1,2,3,4-tetrahydro-2-naphthoate)]-urea}]
CCK receptor (pancreas); [1]
  IC50: > 3 µM
CCK receptor (brain)
  IC50: 0.647 µM

## COC(=O)C1(NC(=O)OC(C)(C)C)CCc2ccc(NC(=O)N[C@@H]3N=C(c4ccccc4)c4ccccc4N(C)C3=O)cc2C1 (stereo partly drawn) [Example 15, N-{(3R)-1,3-Dihydro-1-methyl-2-oxo-5-phenyl-1H-1,4-benzodiazepin-3-yl}-N'-{[7-(methyl-2-(R,S)-tert-butyloxycarbonylamino-1,2,3,4-tetrahydro-2-naphthoate)]-urea}]
CCK receptor (pancreas); [1]
  IC50: > 3 µM
CCK receptor (brain)
  IC50: 0.126 µM

## COC(=O)C1(N)CCc2ccc(NC(=O)N[C@@H]3N=C(c4ccccc4)c4ccccc4N(C)C3=O)cc2C1 (stereo partly drawn) [Example 16, N-{(3R)-1,3-Dihydro-1-methyl-2-oxo-5-phenyl-1H-1,4-benzodiazepin-3-yl}-N'-{[7-(methyl-2-(R,S)-amino-1,2,3,4-tetrahydro-2-naphthoate)]-urea}]
CCK receptor (pancreas)
  IC50: > 3 µM
CCK receptor (brain)
  IC50: 0.148 µM

## CN1C(=O)[C@H](NC(=O)Nc2ccc3c(c2)CC(N)(C(=O)O)CC3)N=C(c2ccccc2)c2ccccc21 (stereo partly drawn) [Example 17, N-{(3R)-1,3-Dihydro-1-methyl-2-oxo-5-phenyl-1H-1,4-benzodiazepin-3-yl}-N'-{[7-(2-(R,S)amino-1,2,3,4-tetrahydro-2-naphthoic acid)]-urea}]
CCK receptor (pancreas)
  IC50: > 3 µM
CCK receptor (brain)
  IC50: 0.0284 µM

## COC(=O)C1(NC(=O)OC(C)(C)C)CCc2cc(NC(=O)N[C@@H]3N=C(c4ccccc4)c4ccccc4N(C)C3=O)ccc2C1 (stereo partly drawn) [Example 18, N-{(3R)-1,3-Dihydro-1-methyl-2-oxo-5-phenyl-1H-1,4-benzodiazepin-3-yl}-N'-{[6-(methyl-2-(R,S)-tert-butyloxycarbonylamino-1,2,3,4-tetrahydro-2-naphthoate)]-urea}]
CCK receptor (brain)
  IC50: > 3 µM

## COC(=O)C1(N)CCc2cc(NC(=O)N[C@@H]3N=C(c4ccccc4)c4ccccc4N(C)C3=O)ccc2C1 (some centres unmarked) [Example 19]
CCK receptor (pancreas)
  IC50: > 3 µM
CCK receptor (brain)
  IC50: > 3 µM

## CN1C(=O)[C@H](NC(=O)Nc2ccc3c(c2)CCC(N)(C(=O)O)C3)N=C(c2ccccc2)c2ccccc21 (stereo partly drawn) [Example 20, N-{(3R)-1,3-Dihydro-1-methyl-2-oxo-5-phenyl-1H-1,4-benzodiazepin-3-yl}-N'-{[6-(2-(R,S)-amino-1,2,3,4-tetrahydro-2-naphthoic acid)]-urea}]
CCK receptor (pancreas)
  IC50: > 3 µM
CCK receptor (brain)
  IC50: 3.52 µM
